Values quoted from earlier work, collected in patent US20130295052A1, “NOVEL CONJUGATES FOR TARGETED DRUG DELIVERY” (priority 2010, published 2013).
Read-outs that look alike come from different tables or passages of the source.

grade 4 neutropenia (<500 cells/mm3), patients (60 mg/m2): 75%
grade 4 neutropenia (<500 cells/mm3), patients (100 mg/m2): 85%
neutropenia (<2,000 neutrophils/mm3) occurrence (60-100 mg/m2): virtually in all patients
Compound: CC(=O)O[C@@]12CO[C@@H]1C[C@H](O)[C@@]1(C)C(=O)[C@H](O)C3=C(C)[C@@H](OC(=O)[C@H](O)[C@@H](NC(=O)OC(C)(C)C)c4ccccc4)C[C@@](O)([C@@H](OC(=O)c4ccccc4)[C@H]21)C3(C)C [Taxotere, Docetaxel]
